Usually EC50 stands for the midpoint of the concentration-response curve.

The target in test [1] is T1, eRF1 (Saccharomyces cerevisiae, UniProt P12385).
T1 construct: gene SUP45; Full-length S. cerevisiae eRF1
The test is described as follows: competition with [3H]-AzAt photoaffinity labeling of isolated eRF1 ([…] ataluren vs […] AzAt). The format is binding.

For test [2], the target named is T1, eRF1. The test is described as follows: photoaffinity labeling with [3H]-AzAt, saturation curve on isolated eRF1 (SDS-PAGE gel slice radioactivity). The class given is binding. An excerpt: photoaffinity labeling with [3H]-AzAt, saturation curve on isolated eRF1 (SDS-PAGE gel slice radioactivity) on eRF1 | Photoincorporation into isolated eRF1 as a function of AzAt concentration results in a simple hyperbolic saturation curve

T1 sequence (P12385 whole entry): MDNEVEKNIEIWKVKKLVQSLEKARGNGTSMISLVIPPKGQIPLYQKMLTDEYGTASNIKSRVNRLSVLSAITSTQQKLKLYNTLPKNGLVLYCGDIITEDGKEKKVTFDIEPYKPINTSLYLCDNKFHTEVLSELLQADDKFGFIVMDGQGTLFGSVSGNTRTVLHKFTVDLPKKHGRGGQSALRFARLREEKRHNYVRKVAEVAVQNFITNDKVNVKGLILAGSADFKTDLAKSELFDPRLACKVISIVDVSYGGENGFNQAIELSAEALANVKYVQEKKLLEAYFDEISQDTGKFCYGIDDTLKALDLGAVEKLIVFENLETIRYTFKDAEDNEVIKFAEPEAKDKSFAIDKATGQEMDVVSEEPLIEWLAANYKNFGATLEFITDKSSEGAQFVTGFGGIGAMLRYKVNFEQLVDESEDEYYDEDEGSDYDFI

With `O=C(O)c1cccc(-c2noc(-c3ccccc3F)n2)c1` [ataluren], the “competition with [3H]-AzAt photoaffinity labeling of isolated eRF1 (1000 μM atal)” value in test [1] was “both ataluren and GJ072, an ataluren-like TRID, substantially inhibit AzAt photoincorporation into isolated eRF1”.

On to `[N-]=[N+]=Nc1ccc(-c2nc(-c3cccc(C(=O)O)c3)no2)cc1` [AzAt, 3-(5-(4-azidophenyl)-1,2,4-oxadiazol-3-yl) benzoic acid], for which the EC50 in test [2] was 110 ± 20 µM.

Source of the values: publication PMC9076611, “Ataluren binds to multiple protein synthesis apparatus sites and competitively inhibits release factor-dependent termination” (Nature Communications, 2022).
